# Results taken from patent US20160113932A1, “TREATMENT OF CANCERS USING PI3 KINASE ISOFORM MODULATORS” (INFINITY PHARMACEUTICALS, INC., priority 2013, published 2016).
# How the values were obtained:
# [1] = test system: Jeko-1; settings: in combination with Compound 292
# Experimental: (§1) The method is described as follows. Cells are thawed from a liquid nitrogen preserved state. Once cells have been expanded and divide at their expected doubling times, screening begins. Cells are seeded in growth media in either black 1536-well or 384-well tissue culture treated plates. […] These Tzero (T0) plates are read using ultra-sensitive luminescence on Envision plate readers (Perkin Elmer). […] All data points are collected via automated processes, quality controlled and analyzed using Zalicus software.
# (§2) I ranges from 0% (when T=V) to 100% (when T=0). […] The measure of effect in the experiment can be the inhibition of cellular response relative to the untreated level (vehicle alone). For untreated vehicle and treated levels V and T, a fractional inhibition 1=1−T/V is calculated. The inhibition ranges from 0% at the untreated level to 100% when T=0 Inhibition levels are negative for agents that actually increase levels. Other effect measures, such as an activity ratio r=T/V may be more appropriate for some assays. When activity ratios (e.g, fold increase over […] control) are being used, the effect can be measured using an induction I=1n(T/V). With this definition, all effect expressions are the same as for inhibition.
# (§3) Growth Inhibition (GI) is used as a measure of cell viability. […] A GI reading of 100% represents complete growth inhibition-T72 compound-treated and T0 vehicle signals are matched. […] A GI reading of 200% represents complete death of all cells in the culture well. Compounds reaching an activity plateau of GI 200% are considered cytotoxic. GI is calculated by applying the following test and equation: […]
# (§4) Combination analysis data were collected in a 6×6 dose matrix. Synergy is calculated by comparing a combination's response to those of its single compound, against the drug-with-itself dose-additive reference model. Deviations from dose additivity may be assessed visually on an isobologram or numerically with a Combination Index (CI). […] Additive effect is CI=1.0. […] Antagonistic effect is CI>1.0.
# (§5) To measure combination effects in excess of Loewe additivity, a scalar measure to characterize the strength of synergistic interaction termed the Synergy Score is devised. The Synergy Score is calculated as: […]
# (§6) The fractional inhibition for each component agent and combination point in the matrix is calculated relative to the median of all vehicle-treated control wells. The Synergy Score equation integrates the experimentally-observed activity volume at each point in the matrix in excess of a model surface numerically derived from the activity of the component agents using the Loewe model for additivity. Additional terms in the Synergy Score equation (above) are used to normalize for various dilution factors used for individual agents and to allow for comparison of synergy scores across an entire experiment. The inclusion of positive inhibition gating or an Idata multiplier removes noise near the zero effect level, and biases results for synergistic interactions at that occur at high activity levels.
# (§7) Loewe Volume (Loewe Vol) is used to assess the overall magnitude of the combination interaction in excess of the Loewe additivity model. Loewe Volume is particularly useful when distinguishing synergistic increases in a phenotypic activity (positive Loewe Volume) versus synergistic antagonisms (negative Loewe Volume). […] This model defines additivity as a non-synergistic combination interaction where the combination dose matrix surface should be indistinguishable from either drug crossed with itself.
# [2] = test system: Mino; settings: in combination with Compound 292
# Experimental: as §1, §2, §3, §4, §5, §6, §7
# [3] = test system: OCI-Ly7; settings: in combination with Compound 292
# Experimental: as §1, §2, §3, §4, §5, §6, §7
# [4] = test system: Farage; settings: in combination with Compound 292
# Experimental: as §1, §2, §3, §4, §5, §6, §7
# [5] = test system: OCI-LY3; settings: in combination with Compound 292
# Experimental: as §1, §2, §3, §4, §5, §6, §7
# [6] = test system: TMD8; settings: in combination with Compound 292
# Experimental: as §1, §2, §3, §4, §5, §6, §7
# [7] = test system: DOHH-2; settings: in combination with Compound 292
# Experimental: as §1, §2, §3, §4, §5, §6, §7
# [8] = test system: SU-DHL-4-epst; settings: in combination with Compound 292
# Experimental: as §1, §2, §3, §4, §5, §6, §7
# [9] = test system: NCI-H929; settings: in combination with Compound 292
# Experimental: as §1, §2, §3, §4, §5, §6, §7
# [10] = test system: GRANTA-519; settings: in combination with Compound 292
# Experimental: as §1, §2, §3, §4, §5, §6, §7
# [11] = test system: SU-DHL-10-epst; settings: in combination with Compound 292
# Experimental: as §1, §2, §3, §4, §5, §6, §7
# [12] = test system: WSU-NHL; settings: in combination with Compound 292
# Experimental: as §1, §2, §3, §4, §5, §6, §7
# [13] = test system: HH; settings: in combination with Compound 292
# Experimental: as §1, §2, §3, §4, §5, §6, §7
# [14] = test system: KARPAS-422; settings: in combination with Compound 292
# Experimental: as §1, §2, §3, §4, §5, §6, §7
# [15] = test system: HBL-1; settings: in combination with Compound 292
# Experimental: as §1, §2, §3, §4, §5, §6, §7
# [16] = test system: OPM-2; settings: in combination with Compound 292
# Experimental: as §1, §2, §3, §4, §5, §6, §7
# [17] = test system: U-2932; settings: in combination with Compound 292
# Experimental: as §1, §2, §3, §4, §5, §6, §7
# [18] = test system: KARPAS-299; settings: in combination with Compound 292
# Experimental: as §1, §2, §3, §4, §5, §6, §7
# [19] = test system: RPMI-8226; assay: Combination with BTK inhibitor, 72 h ATPLite, 6x6 dose matrix (multiple myeloma); assay type: cell-based; settings: in combination with Compound 292
# Experimental: as §1, §2, §3, §4, §5
# The fractional inhibition for each component agent and combination point in the matrix is calculated relative to the median of all vehicle-treated control wells. The Synergy Score equation integrates the experimentally-observed activity volume at each point in the matrix in excess of a model surface numerically derived from the activity of the component agents using the Loewe model for additivity. […]
# [20] = test system: RL; assay: Combination with BTK inhibitor, 72 h ATPLite, 6x6 dose matrix (follicular lymphoma); assay type: cell-based; settings: in combination with Compound 292
# Experimental: as §1, §2, §3, §4, §5, §6, §7
# [21] = target: T1, PI3K γ (Homo sapiens, UniProt P48736); assay: PI3K lipid kinase inhibition assay (TLC or HTRF), PI3K γ; assay type: biochemical; settings: In Vitro
# T1 construct: purchased Sigma
# Text: (§8) Other commercial kits or systems for assaying PI3K activities are available. […] An exemplary system is PI 3-Kinase (human) HTRF™ Assay from Upstate.
# [22] = target: PI3K δ (Homo sapiens, UniProt O00329); assay: PI3K lipid kinase inhibition assay (TLC or HTRF), PI3K δ; assay type: biochemical; parameters: purchased Upstate; settings: In Vitro
# Text: as §8
# [23] = target: T2, PI3K β (Homo sapiens, UniProt P42338); assay: PI3K lipid kinase inhibition assay (TLC or HTRF), PI3K β; assay type: biochemical; settings: In Vitro
# T2 construct: purchased Upstate
# Text: as §8
# T1 sequence (P48736 whole entry): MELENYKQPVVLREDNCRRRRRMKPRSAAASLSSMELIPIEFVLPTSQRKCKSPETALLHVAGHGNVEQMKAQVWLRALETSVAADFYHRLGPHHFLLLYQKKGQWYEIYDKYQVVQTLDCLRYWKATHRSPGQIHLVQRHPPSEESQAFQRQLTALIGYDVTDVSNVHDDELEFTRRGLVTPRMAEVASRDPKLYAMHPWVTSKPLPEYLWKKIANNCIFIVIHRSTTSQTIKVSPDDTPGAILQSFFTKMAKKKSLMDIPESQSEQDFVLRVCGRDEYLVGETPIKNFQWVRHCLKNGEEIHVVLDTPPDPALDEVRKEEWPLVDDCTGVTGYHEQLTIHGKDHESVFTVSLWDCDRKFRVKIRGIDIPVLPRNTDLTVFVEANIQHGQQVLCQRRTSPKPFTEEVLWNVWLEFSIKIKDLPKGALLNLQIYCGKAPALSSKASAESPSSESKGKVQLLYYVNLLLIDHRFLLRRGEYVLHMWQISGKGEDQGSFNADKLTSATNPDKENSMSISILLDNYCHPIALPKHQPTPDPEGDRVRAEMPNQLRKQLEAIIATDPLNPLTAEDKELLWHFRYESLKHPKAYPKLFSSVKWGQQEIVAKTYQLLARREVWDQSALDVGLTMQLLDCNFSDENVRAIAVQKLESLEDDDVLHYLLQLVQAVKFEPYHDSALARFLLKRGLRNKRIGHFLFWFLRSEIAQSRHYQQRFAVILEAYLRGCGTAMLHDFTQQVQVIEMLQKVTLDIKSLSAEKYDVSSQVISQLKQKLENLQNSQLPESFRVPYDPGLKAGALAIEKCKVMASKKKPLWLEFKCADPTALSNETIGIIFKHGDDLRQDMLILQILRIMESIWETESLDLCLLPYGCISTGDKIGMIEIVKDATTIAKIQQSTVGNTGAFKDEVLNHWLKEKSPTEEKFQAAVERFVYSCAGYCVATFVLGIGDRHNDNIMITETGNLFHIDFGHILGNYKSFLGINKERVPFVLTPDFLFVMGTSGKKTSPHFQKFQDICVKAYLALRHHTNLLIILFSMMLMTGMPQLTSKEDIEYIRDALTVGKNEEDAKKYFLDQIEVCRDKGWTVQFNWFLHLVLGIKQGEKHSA
# PI3K δ, sequence (O00329 whole entry): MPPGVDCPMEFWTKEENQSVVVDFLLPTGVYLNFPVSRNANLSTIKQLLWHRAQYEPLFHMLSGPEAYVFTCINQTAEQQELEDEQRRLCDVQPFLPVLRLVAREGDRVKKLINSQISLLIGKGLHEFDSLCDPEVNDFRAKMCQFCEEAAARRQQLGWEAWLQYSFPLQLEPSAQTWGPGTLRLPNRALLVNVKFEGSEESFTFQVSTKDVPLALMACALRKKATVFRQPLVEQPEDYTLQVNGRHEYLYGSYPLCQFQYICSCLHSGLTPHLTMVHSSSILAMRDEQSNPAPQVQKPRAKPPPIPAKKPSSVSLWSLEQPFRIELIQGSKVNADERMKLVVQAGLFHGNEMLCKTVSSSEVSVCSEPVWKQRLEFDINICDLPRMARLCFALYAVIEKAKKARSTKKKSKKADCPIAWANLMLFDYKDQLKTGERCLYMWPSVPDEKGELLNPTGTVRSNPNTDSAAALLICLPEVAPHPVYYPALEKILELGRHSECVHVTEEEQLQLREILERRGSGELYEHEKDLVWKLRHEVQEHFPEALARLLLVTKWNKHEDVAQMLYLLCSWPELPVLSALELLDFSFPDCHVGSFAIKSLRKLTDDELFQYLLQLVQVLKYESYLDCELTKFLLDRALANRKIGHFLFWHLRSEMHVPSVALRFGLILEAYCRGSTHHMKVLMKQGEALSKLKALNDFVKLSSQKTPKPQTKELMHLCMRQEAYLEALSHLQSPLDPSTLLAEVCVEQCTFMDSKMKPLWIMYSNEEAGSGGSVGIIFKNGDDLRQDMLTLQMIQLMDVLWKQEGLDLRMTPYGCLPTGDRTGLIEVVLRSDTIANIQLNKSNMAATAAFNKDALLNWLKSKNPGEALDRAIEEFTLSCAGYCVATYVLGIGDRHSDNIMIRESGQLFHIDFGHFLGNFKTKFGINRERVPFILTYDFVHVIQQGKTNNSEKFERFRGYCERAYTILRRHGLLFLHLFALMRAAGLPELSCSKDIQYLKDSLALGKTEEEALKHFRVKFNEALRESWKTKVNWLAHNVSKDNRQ
# PI3K δ, sequence (P27986 whole entry partner): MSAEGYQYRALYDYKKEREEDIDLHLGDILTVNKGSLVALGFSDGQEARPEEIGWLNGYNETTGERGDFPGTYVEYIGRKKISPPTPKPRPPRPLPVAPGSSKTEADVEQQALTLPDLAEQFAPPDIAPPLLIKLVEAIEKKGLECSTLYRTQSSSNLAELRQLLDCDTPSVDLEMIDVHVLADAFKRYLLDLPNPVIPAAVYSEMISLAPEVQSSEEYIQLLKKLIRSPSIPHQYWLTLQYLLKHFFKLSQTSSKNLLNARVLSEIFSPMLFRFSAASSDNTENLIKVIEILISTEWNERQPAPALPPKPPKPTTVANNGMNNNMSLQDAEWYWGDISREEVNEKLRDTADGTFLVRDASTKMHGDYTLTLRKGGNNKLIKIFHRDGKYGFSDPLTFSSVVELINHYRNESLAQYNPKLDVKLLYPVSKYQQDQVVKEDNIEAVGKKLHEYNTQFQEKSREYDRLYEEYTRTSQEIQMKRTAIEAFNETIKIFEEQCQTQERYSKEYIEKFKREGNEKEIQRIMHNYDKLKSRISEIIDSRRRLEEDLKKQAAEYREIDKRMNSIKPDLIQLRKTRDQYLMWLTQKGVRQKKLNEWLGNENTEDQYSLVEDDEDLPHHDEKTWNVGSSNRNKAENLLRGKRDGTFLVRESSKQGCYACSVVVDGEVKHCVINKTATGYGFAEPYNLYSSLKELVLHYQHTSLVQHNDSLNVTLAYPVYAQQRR
# T2 sequence (P42338 whole entry): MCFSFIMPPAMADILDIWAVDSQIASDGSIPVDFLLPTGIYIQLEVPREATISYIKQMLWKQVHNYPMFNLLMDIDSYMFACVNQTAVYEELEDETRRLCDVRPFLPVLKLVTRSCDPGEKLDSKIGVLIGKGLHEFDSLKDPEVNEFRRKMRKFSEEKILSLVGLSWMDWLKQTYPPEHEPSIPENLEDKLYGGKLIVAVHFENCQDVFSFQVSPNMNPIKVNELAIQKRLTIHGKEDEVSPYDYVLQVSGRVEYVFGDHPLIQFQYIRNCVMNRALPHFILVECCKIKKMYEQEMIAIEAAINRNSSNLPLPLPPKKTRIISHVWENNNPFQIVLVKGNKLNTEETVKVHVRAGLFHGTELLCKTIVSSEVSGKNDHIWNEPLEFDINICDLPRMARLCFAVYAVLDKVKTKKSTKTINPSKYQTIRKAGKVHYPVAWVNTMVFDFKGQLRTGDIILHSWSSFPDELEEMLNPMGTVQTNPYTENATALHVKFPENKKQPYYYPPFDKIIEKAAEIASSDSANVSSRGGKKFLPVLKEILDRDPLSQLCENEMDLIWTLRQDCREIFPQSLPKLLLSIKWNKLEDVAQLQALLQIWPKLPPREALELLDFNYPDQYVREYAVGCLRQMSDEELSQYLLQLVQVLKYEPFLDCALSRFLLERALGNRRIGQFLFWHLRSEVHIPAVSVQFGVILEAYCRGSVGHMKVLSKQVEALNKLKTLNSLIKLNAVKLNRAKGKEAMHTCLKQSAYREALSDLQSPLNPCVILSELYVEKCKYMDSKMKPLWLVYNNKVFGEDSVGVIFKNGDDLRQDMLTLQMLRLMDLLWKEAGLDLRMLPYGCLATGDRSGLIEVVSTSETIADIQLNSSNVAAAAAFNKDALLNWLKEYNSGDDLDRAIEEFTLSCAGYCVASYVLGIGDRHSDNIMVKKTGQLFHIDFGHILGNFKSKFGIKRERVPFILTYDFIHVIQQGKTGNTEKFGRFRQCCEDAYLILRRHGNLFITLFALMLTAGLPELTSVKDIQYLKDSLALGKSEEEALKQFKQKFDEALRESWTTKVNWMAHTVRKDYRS
# T2 sequence (P27986 whole entry partner): as the sequence (P27986 whole entry partner) above
structure (smiles),measurement,setting,value
"C=CC(=O)Nc1cccc(Nc2nc(Nc3ccc(OCCOC)cc3)ncc2F)c1 [AVL-292, N-(3-((5-fluoro-2-((4-(2-methoxyethoxy)phenyl)amino)pyrimidin-4-yl)amino)phenyl)acrylamide]",CI50 (growth inhibition),[1],U (U=0.7 to <1)
same,CI50 (inhibition),[1],U (U=0.7 to <1)
same,Synergy Score (growth inhibition),[1],A1 (A1=0.0001 to <1)
same,Synergy Score (inhibition),[1],A1 (A1=0.0001 to <1)
same,CI50 (growth inhibition),[2],S (S=0.01 to <0.5)
same,CI50 (inhibition),[2],S (S=0.01 to <0.5)
same,Synergy Score (growth inhibition),[2],A3 (A3=>3)
same,Synergy Score (inhibition),[2],A2 (A2=1 to <3)
same,CI50 (growth inhibition),[3],W (W=≧1)
same,Synergy Score (growth inhibition),[3],A1 (A1=0.0001 to <1)
same,Synergy Score (inhibition),[3],A1 (A1=0.0001 to <1)
same,CI50 (growth inhibition),[4],S (S=0.01 to <0.5)
same,CI50 (inhibition),[4],S (S=0.01 to <0.5)
same,Synergy Score (growth inhibition),[4],A3 (A3=>3)
same,Synergy Score (inhibition),[4],A2 (A2=1 to <3)
same,CI50 (growth inhibition),[5],U (U=0.7 to <1)
same,Synergy Score (growth inhibition),[5],A1 (A1=0.0001 to <1)
same,Synergy Score (inhibition),[5],A1 (A1=0.0001 to <1)
same,CI50 (growth inhibition),[6],S (S=0.01 to <0.5)
same,CI50 (inhibition),[6],S (S=0.01 to <0.5)
same,Synergy Score (growth inhibition),[6],A3 (A3=>3)
same,Synergy Score (inhibition),[6],A2 (A2=1 to <3)
same,CI50 (growth inhibition),[7],T (T=0.5 to <0.7)
same,CI50 (inhibition),[7],T (T=0.5 to <0.7)
same,Synergy Score (growth inhibition),[7],A3 (A3=>3)
same,Synergy Score (inhibition),[7],A2 (A2=1 to <3)
same,CI50 (growth inhibition),[8],T (T=0.5 to <0.7)
same,CI50 (inhibition),[8],S (S=0.01 to <0.5)
same,Synergy Score (growth inhibition),[8],A2 (A2=1 to <3)
same,Synergy Score (inhibition),[8],A2 (A2=1 to <3)
same,CI50 (growth inhibition),[9],U (U=0.7 to <1)
same,CI50 (inhibition),[9],U (U=0.7 to <1)
same,Synergy Score (growth inhibition),[9],A2 (A2=1 to <3)
same,Synergy Score (inhibition),[9],A1 (A1=0.0001 to <1)
same,CI50 (growth inhibition),[10],W (W=≧1)
same,Synergy Score (growth inhibition),[10],A1 (A1=0.0001 to <1)
same,Synergy Score (inhibition),[10],A1 (A1=0.0001 to <1)
same,CI50 (growth inhibition),[11],T (T=0.5 to <0.7)
same,CI50 (inhibition),[11],T (T=0.5 to <0.7)
same,Synergy Score (growth inhibition),[11],A3 (A3=>3)
same,Synergy Score (inhibition),[11],A2 (A2=1 to <3)
same,CI50 (growth inhibition),[12],T (T=0.5 to <0.7)
same,CI50 (inhibition),[12],S (S=0.01 to <0.5)
same,Synergy Score (growth inhibition),[12],A3 (A3=>3)
same,Synergy Score (inhibition),[12],A2 (A2=1 to <3)
same,CI50 (growth inhibition),[13],T (T=0.5 to <0.7)
same,CI50 (inhibition),[13],U (U=0.7 to <1)
same,Synergy Score (growth inhibition),[13],A2 (A2=1 to <3)
same,Synergy Score (inhibition),[13],A2 (A2=1 to <3)
same,CI50 (growth inhibition),[14],U (U=0.7 to <1)
same,CI50 (inhibition),[14],T (T=0.5 to <0.7)
same,Synergy Score (growth inhibition),[14],A2 (A2=1 to <3)
same,Synergy Score (inhibition),[14],A1 (A1=0.0001 to <1)
same,CI50 (growth inhibition),[15],T (T=0.5 to <0.7)
same,CI50 (inhibition),[15],W (W=≧1)
same,Synergy Score (growth inhibition),[15],A2 (A2=1 to <3)
same,Synergy Score (inhibition),[15],A1 (A1=0.0001 to <1)
same,CI50 (growth inhibition),[16],T (T=0.5 to <0.7)
same,CI50 (inhibition),[16],U (U=0.7 to <1)
same,Synergy Score (growth inhibition),[16],A2 (A2=1 to <3)
same,Synergy Score (inhibition),[16],A1 (A1=0.0001 to <1)
same,CI50 (growth inhibition),[17],T (T=0.5 to <0.7)
same,CI50 (inhibition),[17],W (W=≧1)
same,Synergy Score (growth inhibition),[17],A2 (A2=1 to <3)
same,Synergy Score (inhibition),[17],A1 (A1=0.0001 to <1)
same,CI50 (growth inhibition),[18],U (U=0.7 to <1)
same,Synergy Score (growth inhibition),[18],A1 (A1=0.0001 to <1)
same,Synergy Score (inhibition),[18],A1 (A1=0.0001 to <1)
same,CI50 (growth inhibition),[19],U (U=0.7 to <1)
same,CI50 (inhibition),[19],W (W=≧1)
same,Synergy Score (growth inhibition),[19],A1 (A1=0.0001 to <1)
same,Synergy Score (inhibition),[19],A1 (A1=0.0001 to <1)
same,Synergy Score (growth inhibition),[20],A1 (A1=0.0001 to <1)
same,Synergy Score (inhibition),[20],A1 (A1=0.0001 to <1)
Cc1ccccc1-n1c(Cn2cnc3c(N)ncnc32)cc2cccc(C)c2c1=O [Compound 5],IC50,[21],> 10000 nM
same,IC50,[22],< 10000 nM
Cc1cccnc1-n1c(Cn2nc(-c3cccc(O)c3)c3c(N)ncnc32)cc2ccccc2c1=O [Compound 94],IC50,[21],< 10000 nM
same,IC50,[22],< 1000 nM
Cc1ccccc1-n1c(Cn2nc(I)c3c(N)ncnc32)cc2cccc(C)c2c1=O [Compound 104],IC50,[23],> 10000 nM
same,IC50,[21],< 1000 nM
Cc1ccccc1-n1c(Cn2nc(-c3cc(O)cc(F)c3)c3c(N)ncnc32)cc2cccc(C)c2c1=O [Compound 113],IC50,[23],< 10000 nM
Cc1ccccc1-n1c(Cn2nc(-c3cccc(O)c3)c3c(N)nccc32)cc2cccc(C)c2c1=O [Compound 119],IC50,[22],< 100 nM
